Results on 23 compounds are retold here after ChEMBL document CHEMBL5241069, “A key review on oxadiazole analogs as potential methicillin-resistant Staphylococcus aureus (MRSA) activity: Structure-activity relationship studies” (Eur J Med Chem, 2021).

In brackets after ≈: the same amount, converted by molar mass. Bounds are passed on as bounds.

The test system of test [1] is Staphylococcus aureus. Briefly: Antibacterial activity against methicillin resistant Staphylococcus aureus assessed as inhibition zone by CLSI protocol based agar disc diffusion method. In kind it is functional.
The subject of test [2] is Staphylococcus aureus. Description: Antibacterial activity against methicillin resistant Staphylococcus aureus ATCC 43300 assessed as inhibition of bacterial growth incubated for 24 to 48 hrs by spectrophotometric analysis. In kind it is functional. Conditions: time 24-48 hrs.
The test system of test [3] is Staphylococcus aureus. Description: Antimicrobial activity against methicillin resistant Staphylococcus aureus ATCC 25923 assessed as inhibition of bacterial growth by agar diffusion cup plate method. The format is functional.
The test system of test [4] is Staphylococcus aureus. Description: Antibacterial activity against methicillin resistant Staphylococcus aureus assessed as inhibition of bacterial growth. The format is functional, organism-based.
In test [5] the test system is Staphylococcus aureus. Briefly: Antimicrobial activity against methicillin resistant Staphylococcus aureus 1 assessed as inhibition of bacterial growth incubated for 16 to 20 hrs by CLSI protocol based Muller-Hinton broth method. In kind it is functional. Conditions: time 16-20 hrs.
Test [6] concerns Staphylococcus aureus. Briefly: Antimicrobial activity against methicillin resistant Staphylococcus aureus 2 assessed as inhibition of bacterial growth incubated for 16 to 20 hrs by CLSI protocol based Muller-Hinton broth method. In kind it is functional. As to conditions: time 16-20 hrs.
Test [7] has as its system Staphylococcus aureus. Description: Antimicrobial activity against methicillin resistant Staphylococcus aureus 3 assessed as inhibition of bacterial growth incubated for 16 to 20 hrs by CLSI protocol based Muller-Hinton broth method. In kind it is functional. Conditions: time 16-20 hrs.
Test [8] concerns Staphylococcus aureus. Briefly: Antibacterial activity against methicillin resistant Staphylococcus aureus assessed as inhibition zone by disc diffusion method. In kind it is functional. A general note: A growth-free zone around the sample is the usual read-out of agar diffusion tests.
Test [9] concerns Staphylococcus aureus. Briefly: Antibacterial activity against methicillin resistant Staphylococcus aureus MTCC 84 incubated for 24 hrs by serial dilution method. The format is functional.
Test [10] deals with Staphylococcus aureus. Briefly: Antibacterial activity methicillin resistant Staphylococcus aureus 2658 RCMB assessed as inhibition of bacterial growth by broth microdilution method. The format is functional. Background: Dilution methods test growth across graded concentrations, often in twofold steps.
In test [11] the test system is Staphylococcus aureus. Description: Antimicrobial activity against methicillin resistant Staphylococcus aureus 2658 RCMB assessed as inhibition of bacterial growth incubated for 20 hrs by CLSI protocol based broth microdilution method. In kind it is functional.
For test [12], the system named is Staphylococcus aureus. Briefly: Antimicrobial activity against methicillin resistant Staphylococcus aureus ATCC 43300 assessed as inhibition of bacterial growth incubated for 18 to 24 hrs by broth microdilution method. In kind it is functional. Conditions: time 18-24 hrs.
Test [13] concerns Staphylococcus aureus. Briefly: Antibacterial activity against methicillin resistant Staphylococcus aureus MW2 assessed as inhibition of bacterial growth incubated for 16 to 20 hrs by CLSI protocol based Mueller-Hinton broth method. The format is functional. Conditions: time 16-20 hrs.
In test [14] the test system is Staphylococcus aureus. Briefly: Antibacterial activity against methicillin resistant Staphylococcus aureus USA300 assessed as inhibition of bacterial growth incubated for 16 to 20 hrs by CLSI protocol based Mueller-Hinton broth method. In kind it is functional. As to conditions: time 16-20 hrs.
For test [15], the system named is Staphylococcus aureus. Briefly: Antimicrobial activity against methicillin resistant Staphylococcus aureus USA300 assessed as inhibition of bacterial growth incubated for 16 to 20 hrs by CLSI protocol based method. The format is functional. Conditions: time 16-20 hrs.
Test [16] concerns Staphylococcus aureus. Description: Antimicrobial activity against Staphylococcus aureus Newman assessed as inhibition of bacterial growth incubated for 16 to 20 hrs by CLSI protocol based method. The format is functional. As to conditions: time 16-20 hrs.
Test [17] has as its system Staphylococcus aureus. Briefly: Antimicrobial activity against methicillin resistant Staphylococcus aureus A252 assessed as inhibition of bacterial growth incubated for 16 to 20 hrs by CLSI protocol based method. The format is functional. Conditions: time 16-20 hrs.

In the case of `O=P(Oc1ccccc1)(Oc1ccccc1)C(Nc1nnc(-c2cccc(Br)n2)o1)c1cccc(F)c1` (stereo not given), the “inhibition zone (IZ)” value in the test with Staphylococcus aureus [1] is 17 mm. Regarding `O=C(/C=C/c1cccc([N+](=O)[O-])c1)N1N=C(c2ccncc2)OC1c1cn(-c2ccccc2)nc1-c1ccc(F)cc1` (stereo not given), the minimal inhibitory concentration (MIC) in the test with Staphylococcus aureus [2] is over 50 mg/L. For `Cc1nnc(-c2ccc(O)cc2)o1`, the MIC with Staphylococcus aureus [3] amounted to 25 mg/L (≈ 142 µM). For the compound “2-((phenylbismuthino)thio)-5-(2-(p-tolyl)thiazol-4-yl)-1,3,4-oxadiazole”, the MIC in the test on Staphylococcus aureus [4] came to 1.1 µM. Turning to `CCn1cc(C(=O)O)c(=O)c2cc(F)c(N3CCN(Cc4nnc(-c5ccc(F)cc5Cl)o4)CC3)cc21`, the MIC with Staphylococcus aureus [5], with Staphylococcus aureus [6] and in the test on Staphylococcus aureus [7] was 1 mg/L (≈ 1.89 µM) throughout.

Turning to `O=C(/C=C/c1cccc(F)c1)N1N=C(c2ccncc2)OC1c1cn(-c2ccccc2)nc1-c1ccc(F)cc1` (stereo not given), the minimal inhibitory concentration (MIC) in the test with Staphylococcus aureus [2] is 25 mg/L (≈ 46.9 µM).

For the compound `O=C(O)c1cn(C2CC2)c2cc(N3CCNCC3)c(F)cc2c1=O` [CIPROFLOXACIN], the “inhibition zone (IZ)” value in the test with Staphylococcus aureus [8] is 22 mm. For the same compound, in the test on Staphylococcus aureus [9], the MIC was over 100 mg/L. For `Cc1nc(-c2ccc(C(C)(C)C)cc2)sc1-c1nnc(NC(=N)N)o1`, the MIC with Staphylococcus aureus [10] turned out to be 6.25 mg/L (≈ 17.5 µM). `Cc1nc(-c2ccc3ccccc3c2)sc1-c1nnc(N2CC(O)C2)o1`: the MIC in the test on Staphylococcus aureus [11] stood at 3.9 mg/L (≈ 10.7 µM). Take GENTAMICIN: the MIC with Staphylococcus aureus [12] is 100 mg/L. For `CN[C@@H]1[C@H](O[C@H]2[C@H](O[C@H]3[C@H](O)[C@@H](O)[C@H](N=C(N)N)[C@@H](O)[C@@H]3N=C(N)N)O[C@@H](C)[C@]2(O)C=O)O[C@@H](CO)[C@H](O)[C@H]1O` [STREPTOMYCIN], the MIC with Staphylococcus aureus [9] was over 100 mg/L. Turning to `CCCCC(=O)Nc1nnc(-c2ccc(Cl)cc2)o1`, the MBC in the test on Staphylococcus aureus [13] is 64 mg/L (≈ 229 µM); in the test on Staphylococcus aureus [14] it was 8 mg/L (≈ 28.6 µM). Regarding `O=C(Nc1nnc(-c2ccc(F)cc2)o1)c1cccc(C(F)(F)F)c1`, the results for the MIC with Staphylococcus aureus [15], with Staphylococcus aureus [16] and in the test on Staphylococcus aureus [17] were 0.35 mg/L (≈ 0.996 µM), 0.7 mg/L (≈ 1.99 µM) and 0.7 mg/L (≈ 1.99 µM), respectively. With `C=C(C)C(=O)OCC[N+](CC)(CC)Cc1nnc(CCCCc2nnc(C[N+](CC)(CC)CCOC(=O)C(=C)C)o2)o1.[Cl-].[Cl-]`, in the test with Staphylococcus aureus [12], the MIC worked out at 0.98 mg/L. As to `C=C(C)C(=O)OCC[N+](C)(C)Cc1nnc(CCCCc2nnc(C[N+](C)(C)CCOC(=O)C(=C)C)o2)o1.[Cl-].[Cl-]`, in the test with Staphylococcus aureus [12], the MIC turned out to be 0.98 mg/L.

As for `CCn1cc(C(=O)O)c(=O)c2cc(F)c(N3CCN(Cc4nnc(-c5ccccc5C)o4)CC3)cc21`, the MIC in the test on Staphylococcus aureus [5] stood at 1 mg/L (≈ 2.03 µM); in the test on Staphylococcus aureus [6] it was 0.5 mg/L (≈ 1.02 µM); in the test on Staphylococcus aureus [7] it was 2 mg/L (≈ 4.07 µM). As to `O=[N+]([O-])c1ccc(C(Nc2nnc(-c3cccc(Br)n3)o2)P(=O)(Oc2ccccc2)Oc2ccccc2)cc1F` (stereo not given), in the test on Staphylococcus aureus [1], the “inhibition zone (IZ)” value was 17 mm. Take `Cc1nc(-c2ccc(C(C)(C)C)cc2)sc1-c1nnc(NC(=N)N2CCOCC2)o1`: the MIC in the test on Staphylococcus aureus [10] was found to be 25 mg/L (≈ 58.6 µM).

With `CCn1cc(C(=O)O)c(=O)c2cc(F)c(N3CCN(Cc4nnc(-c5ccc(OC)cc5)o4)CC3)cc21`, the minimum inhibitory concentration (MIC) amounted to 1 mg/L (≈ 1.97 µM) in the test on Staphylococcus aureus [5], 0.5 mg/L (≈ 0.985 µM) in the test on Staphylococcus aureus [6] and 1 mg/L (≈ 1.97 µM) in the test on Staphylococcus aureus [7]. `COc1ccc(-c2nnc(C)o2)cc1`: in the test on Staphylococcus aureus [3], the MIC was 25 mg/L (≈ 131 µM). As to `Cc1nc(-c2ccc3ccccc3c2)sc1-c1nnc(NC(=N)N2CCNCC2)o1`, in the test with Staphylococcus aureus [11], the MIC is 1.95 mg/L (≈ 4.65 µM). Turning to `O=C(N[C@H](CO)[C@H](O)c1ccc([N+](=O)[O-])cc1)C(Cl)Cl` [CHLORAMPHENICOL], the MIC in the test with Staphylococcus aureus [2] came to 50 mg/L (≈ 155 µM). Take `CCn1cc(C(=O)O)c(=O)c2cc(F)c(N3CCNCC3)cc21` [NORFLOXACIN]: the results for the MIC in the test on Staphylococcus aureus [5], in the test on Staphylococcus aureus [6] and with Staphylococcus aureus [7] were 1 mg/L (≈ 3.13 µM), 2 mg/L (≈ 6.26 µM) and 1 mg/L (≈ 3.13 µM), respectively.

What is called MIC is the smallest concentration in the dilution series that meets the test's criterion for growth inhibition. The MBC is the lowest tested concentration that kills the bacteria rather than only halting them.
